Reference: patent US20100303932A1 (priority 2009, published 2010)
Several values for one entry are separate records, joined by “and”; a condition that tells them apart may be missing. Equal values may be shown once.

Tests used:
[1] = tested on: mice injected with BoNT/A; details: mouse, in vivo
Neuro 2a cells [2] = format: cell-based, mouse
[3] = tested on: EDL nerve muscle preparations; parameters: species or system mouse
TRPV1 = tested on: TRPV1; parameters: species or system mouse
[4] = tested on: mice injected with BoNT/A; details: mouse, in vivo; remark: listed apart in the source
[5] = tested on: mice injected with BoNT/A; details: mouse, in vivo; remark: listed apart in the source
[6] = tested on: mice injected with BoNT/A; details: mouse, in vivo; remark: listed apart in the source
[7] = tested on: EDL nerve muscle preparations
[8] = mouse, in vivo
[9] = tested on: mice injected with BoNT/A
Neuro 2a cells [10] = format: cell-based, mouse; remark: listed apart in the source
motor nerve terminals = tested on: motor nerve terminals; parameters: species or system mouse

COc1cc(CNC(=O)CCCC/C=C/C(C)C)ccc1O [capsaicin, trans 8-methyl-N-vanillyl-6-noneamide]
walk time on rotating rod [1]: remained equivalent to non-treated controls
FM1-43 labeling (Neuro 2a cells [2]): equivalent to control
protective effect of capsaicin on FM1-43 uptake (Neuro 2a cells [2]): did not occur
amplitude of endplate currents (EPCs) [3]: reduced this action of BoNT/A
endplate potentials (EPPs) in response to 70 Hz nerve stimulation [3]: did not fail
inhibitory effect of BoNT/A on mean EPC amplitude [3]: reduced the inhibitory effect of BoNT/A
expression of TRPV1 (TRPV1): did not affect
cessation of grooming behavior after BoNT/A [4]: reduced
Toe spread reflex (TSR) [5]: remained completely normal
Toe spread reflex (TSR) at times later than 24 hours after BoNT/A [5]: continued unaltered
Toe spread reflex (TSR) within 24 hours [5]: remained normal
Muscle Strength (%) ± SEM [6]: 100%
motor strength [6]: retained normal motor strength
force generation or amplitude of stimulus evoked endplate currents (EPC) [7]: no effect
mean nerve-evoked twitch tension ([7]; n=4): 500 ± 100 mg
Body Weight (gram) ± SEM [8]: 32.62 ± 0.56 gram and 33.55 ± 0.51 gram and 38.39 ± 0.93 gram
loss of body mass after BoNT/A [8]: reduced the loss of body mass
recovery of body weight following BoNT/A [8]: significantly enhanced recovery of body weight
CMAP amplitude compared to BoNT/A alone treated mice ([9]; mouse, in vivo): significantly greater
fold recovery of CMAP from week 1 to week 7 ([9]; mouse, in vivo): approximately 18 fold
muscle strength, body weight, CMAP amplitude and performance on the rotor rod ([9]; mouse, in vivo): normal
CMAP amplitude ([9]; n=4): 4.6±0.92 mV and 6.7±1.24 mV and 7.6±1.12 mV
BoNT/A uptake into Neuro 2a cells (Neuro 2a cells [10]): reduced
reduction of BoNT/A uptake into Neuro 2a cells by capsaicin (Neuro 2a cells [10]): prevented by removal of extracellular Ca^2+
exocytosis-induced uptake of BoNT/A into motor nerve terminals (motor nerve terminals): prevented
reduction of BoNT/A uptake into motor nerve terminals by capsaicin (motor nerve terminals): prevented by removal of extracellular Ca^2+

Oc1cc2c(cc1O)CN(C(=S)NCCc1ccc(Cl)cc1)CCC2 [capsazepine]
EPC amplitude or time course [3]: no effect
amplitude of endplate currents (EPCs) [3]: equivalent to that observed after BoNT/A alone
inhibitory effect of BoNT/A on mean EPC amplitude [3]: the protective action of capsaicin was abolished
toe spread 24 hours post-capsaicin [5]: unable to spread toes
